Measurements published in patent US20230242964A1, “BIODEGRADABLE BIOCHEMICAL SENSOR FOR DETERMINING THE PRESENCE AND/OR THE LEVEL OF PESTICIDES OR ENDOCRINE DISRUPTORS: METHOD AND COMPOSITION” (priority 2018, published 2023).

Tests used:
E. coli EPSP Synthase = E. coli EPSP Synthase (Escherichia coli, UniProt P0A6D3); test: EPSP synthase network #2B plugged to phosphate detection
Description: The entry of the network is composed of: the EPSP synthase that uses the phospho-enol pyruvate (PEP) and the 3-phospho Shikimate to produce 5-O-(1-caroxyvinyl)-3-phosphoshikimate and inorganic phosphate.
Then 2 different networks have been tested: • One that converts the inorganic phosphate (Pi): Pi is combined with Inosine in the presence of the purine nucleoside phosphorylase to give Hypoxanthine. The Hypoxantine lead to Xanthine and H2O2 in the presence of Xanthine Oxidase. The Horseradish peroxidase uses the H2O2 to convert the O-dianisidine or the Amplex Red and give a colorimetric or fluorimetric signal detectable.
First, the network has been tested in liquid buffer without vesicle or gel. […] Reaction was followed for 1 hour at 25° C. by registering the absorbance at 450 nm on a spectrophotometer. • One that converts the 5-O-(1-caroxyvinyl)-3-phosphoshikimate produced by the EPSP synthase: 5-O-(1-caroxyvinyl)-3-phosphoshikimate is metabolized by the Chorismate Synthase to give chorismate. This Chorismate is then transformed in pyruvate by the chorismate Lyase. Finaly the pyruvate is used by the Lactate dehydrogenase in the presence of NADH to give lactate and NAD+. The NADH consumption is followed by the change of fluorescence emission at 445 nm (Excitation at 340 nm)—or change of absorbance at 340 nm on a spectrophotometer. • 3.
The reaction was followed by the change of fluorescence on a fluorimeter (Excitation at 530 nm/Emission at 590 nm) or by the change of absorbance at 450 nm on a spectrophotometer. It allowed us to determine the activity of the EPSP synthase toward Phosphoenol Pyruvate (PEP).

BliGO SCF4 mutant = conditions: cited from earlier work
[1] = molecular target: T1, Bacillus subtilis H244K Glycine/Glyphosate oxidase (Bacillus subtilis, UniProt O31616, H244K); test: Glycine biochemical network #3, Amplex red/HRP fluorescence and colorimetric readout; conditions: glyphosate at 100 μM, Tris buffer 50 mM pH 7,5
T1 construct: purchased Creative enzyme NATE-1674
Description: It allowed us to detect the glycine.

Chain of E. coli EPSP Synthase (P0A6D3 whole entry): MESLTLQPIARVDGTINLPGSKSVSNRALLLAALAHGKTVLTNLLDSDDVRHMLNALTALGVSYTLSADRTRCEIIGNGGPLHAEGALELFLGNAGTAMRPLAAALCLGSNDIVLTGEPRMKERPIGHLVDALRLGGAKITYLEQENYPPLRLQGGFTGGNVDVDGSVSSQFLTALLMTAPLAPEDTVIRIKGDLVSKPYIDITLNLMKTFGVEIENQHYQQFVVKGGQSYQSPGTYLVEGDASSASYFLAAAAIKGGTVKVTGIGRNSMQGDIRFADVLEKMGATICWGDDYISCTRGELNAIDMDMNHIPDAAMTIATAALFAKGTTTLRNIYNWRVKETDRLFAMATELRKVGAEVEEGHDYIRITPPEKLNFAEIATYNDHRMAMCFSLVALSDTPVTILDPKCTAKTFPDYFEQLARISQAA
T1 sequence (O31616 whole entry H244K): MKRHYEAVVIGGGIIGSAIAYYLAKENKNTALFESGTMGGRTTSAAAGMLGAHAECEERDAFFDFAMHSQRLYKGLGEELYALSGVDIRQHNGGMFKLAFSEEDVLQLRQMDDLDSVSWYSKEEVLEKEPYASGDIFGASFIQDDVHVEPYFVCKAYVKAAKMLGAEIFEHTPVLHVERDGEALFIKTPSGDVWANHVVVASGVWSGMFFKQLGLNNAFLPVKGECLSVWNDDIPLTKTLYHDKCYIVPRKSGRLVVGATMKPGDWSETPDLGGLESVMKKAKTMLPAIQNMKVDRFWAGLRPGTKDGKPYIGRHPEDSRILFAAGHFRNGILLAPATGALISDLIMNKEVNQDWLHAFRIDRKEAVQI

## C=C(OP(=O)(O)O)C(=O)O [PEP, phosphoenolpyruvate]
E. coli EPSP Synthase; 50 mM Hepes pH 7, 25° C.
  EPSP affinity for PEP: 14 µM
  Vmax of EPSP synthase toward PEP: 1.026e-08 mol/L/s

## NCC(=O)O [glycine]
BliGO SCF4 mutant; BliGO SCF4 mutant vs WT
  decrease of activity to glycine compared to WT: 113 fold

## O=C(O)CNCP(=O)(O)O [glyphosate]
[1]
  detection by network #3: absence of detection
BliGO SCF4 mutant; BliGO SCF4 mutant vs WT
  increase of affinity toward glyphosate compared to WT: 8 fold
BliGO SCF4 mutant; BliGO SCF4 mutant
  affinity toward glyphosate: 1.58 mM
E. coli EPSP Synthase; glyphosate 0 to 2 mM, concentration dependent
  effect on the EPSP synthase: inhibitory effect
